Assays:
Assay in all cases: relative viability (nuclei count vs DMSO), 5 days (fraction); higher = more cells survive
[1] = compound: CC(C)N(CCCNC(=O)Nc1ccc(C(C)(C)C)cc1)C[C@H]1O[C@@H](n2ccc3c(N)ncnc32)[C@H](O)[C@@H]1O + O=C(c1cc(Cc2n[nH]c(=O)c3ccccc23)ccc1F)N1CCN(C(=O)C2CC2)CC1 [Olaparib] (partner 8 µM)
In short: (§1)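 For relative viability, nuclei counts in treated wells were divided by those in vehicle wells. Lung cancer cell lines had been pin-tool dosed in 1536-well plates the day after seeding and cultured for 5 days, then fixed and stained in one step (final 0.05% Triton X-100, 1% formaldehyde, 1 ug/ml Hoechst) and imaged at 4×. Doses were one drug alone or a fixed anchor-drug dose plus five library-drug doses (not always all listed) in √10 steps, and values are duplicate-plate medians.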

Shikonin + Foretinib = compound: CC(C)=CC[C@@H](O)C1=CC(=O)c2c(O)ccc(O)c2C1=O [Shikonin] + COc1cc2c(Oc3ccc(NC(=O)C4(C(=O)Nc5ccc(F)cc5)CC4)cc3F)ccnc2cc1OCCCN1CCOCC1 [Foretinib] (partner 0.25 µM)
In short: as §1

[2] = compound: CC(C)N(CCCNC(=O)Nc1ccc(C(C)(C)C)cc1)C[C@H]1O[C@@H](n2ccc3c(N)ncnc32)[C@H](O)[C@@H]1O + Cc1nc(Nc2ncc(C(=O)Nc3c(C)cccc3Cl)s2)cc(N2CCN(CCO)CC2)n1 [Dasatinib] (partner 0.075 µM)
In short: as §1

Shikonin + Lapatinib = compound: CC(C)=CC[C@@H](O)C1=CC(=O)c2c(O)ccc(O)c2C1=O [Shikonin] + CS(=O)(=O)CCNCc1ccc(-c2ccc3ncnc(Nc4ccc(OCc5cccc(F)c5)c(Cl)c4)c3c2)o1 [Lapatinib] (partner 2 µM)
In short: as §1

## UMC-11
[1]; first compound 0.08 µM
  relative viability: 0.407
[1]; first compound 0.253 µM
  relative viability: 0.447
[1]; first compound 0.8 µM
  relative viability: 0.378
[1]; first compound 2.53 µM
  relative viability: 0.327
[1]; first compound 8 µM
  relative viability: 0.323
Shikonin + Foretinib; first compound 0.01 µM
  relative viability: 1.02
Shikonin + Foretinib; first compound 0.1 µM
  relative viability: 1.13
Shikonin + Foretinib; first compound 0.3162 µM
  relative viability: 1.13
Shikonin + Foretinib; first compound 1 µM
  relative viability: 1.07
[2]; first compound 0.08 µM
  relative viability: 0.461
[2]; first compound 0.253 µM
  relative viability: 0.422
[2]; first compound 0.8 µM
  relative viability: 0.436
[2]; first compound 2.53 µM
  relative viability: 0.486
[2]; first compound 8 µM
  relative viability: 0.492
Shikonin + Lapatinib; first compound 0.01 µM
  relative viability: 1
Shikonin + Lapatinib; first compound 0.1 µM
  relative viability: 1.08
Shikonin + Lapatinib; first compound 0.3162 µM
  relative viability: 1
Shikonin + Lapatinib; first compound 1 µM
  relative viability: 1.12
